# From patent publication US5882851A, “Cytochrome P-450 monooxygenases” (Novartis Finance Corporation, priority 1993, dated 1999)
# How the values were obtained:
# [1] = biological target: T1, P-450TYR expressed in E. coli (Sorghum bicolor, UniProt Q43135); experiment: Substrate binding spectra of P-450TYR expressed in E. coli
# T1 construct: in which the 35 N-terminal amino acids are replaced by the nine N-terminal amino acids from bovine 17α hydroxylase; nine N-terminal amino acids from bovine 17alpha-hydroxylase (replace the 35 N-terminal residues) (N); made in house; host or cells: E. coli JM109, vector pSP19g10L
# T1 sequence (Q43135 other isoform, or with tags, fused parts or gaps): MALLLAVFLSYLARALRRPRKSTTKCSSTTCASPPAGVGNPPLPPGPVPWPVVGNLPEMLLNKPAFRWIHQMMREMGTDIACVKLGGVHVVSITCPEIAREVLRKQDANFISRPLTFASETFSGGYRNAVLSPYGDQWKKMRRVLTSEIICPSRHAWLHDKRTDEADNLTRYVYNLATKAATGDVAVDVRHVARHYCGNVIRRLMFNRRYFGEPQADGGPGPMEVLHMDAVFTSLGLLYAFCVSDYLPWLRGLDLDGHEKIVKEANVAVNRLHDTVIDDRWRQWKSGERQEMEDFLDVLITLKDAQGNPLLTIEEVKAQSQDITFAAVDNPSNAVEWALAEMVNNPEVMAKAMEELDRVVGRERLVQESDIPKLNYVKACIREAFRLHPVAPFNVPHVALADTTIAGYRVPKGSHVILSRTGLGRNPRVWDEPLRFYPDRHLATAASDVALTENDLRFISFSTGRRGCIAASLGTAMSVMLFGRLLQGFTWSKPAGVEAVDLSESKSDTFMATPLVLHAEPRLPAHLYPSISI
# Text: Cytochrome P-450TYR in the oxidized state has a strong absorption peak at 420 nm, representing the low spin state of the iron of the heme group. The binding of a ligand to the heme group shifts the absorption maximum by changing the spin state of the iron. Binding of tyrosine at the catalytic site of cytochrome P-450TYR induces a change of the spin state of the oxidized iron from low to high spin, and thereby changes the absorption maximum from 420 nm to 390 nm producing a type I spectrum (Jefcoate, Methods in Enzymology 52:258-279, 1978). The following experimental procedure is used to obtain the substrate binding spectrum: two identical cuvettes containing a buffered solution of the isolated cytochrome P-450 are prepared. The substrate of the enzyme is added to the sample cuvette whereas the same volume of buffer is added to the other cuvette. The difference spectrum is then recorded in an SLM-Aminco DW2c spectrophotometer. The absorption difference, A390-420, is proportional to the concentration of cytochrome P-450TYR with a bound substrate at its active site. If a saturating concentration of substrate is added to the sample cuvette, the absorption difference is proportional to the concentration of the substrate specific cytochrome P-450 in the cuvettes. The saturating concentration of the substrate is determined by titrating the cytochrome P-450 sample with increasing amounts of substrate and monitoring A390-420.
# A modified cytocrome P-450TYR, in which the 35 N-terminal amino acids are replaced by the nine N-terminal amino acids from bovine 17α hydroxylase is introduced into the expression vector pSP19g10L which can be obtained from Dr. Henry Barnes (La Jolla, Calif.). This plasmid contains the lac Z promoter fused with the known short leader sequence (g10L) of gene 10 from bacteriophage T7 (Olin et al, 1988). A construct containing the N-terminal amino acids from bovine 17α hydroxylase and a truncated form of the P-450TYR gene is designed using PCR mutagenesis: Oligonucleotide TYROL 1d (5'-CGGGATCCATATGGCTCTGTTATTAGCAGTTTTTCTGTCGTACCTGGCCCG-3'; SEQ ID NO 23) containing a 5' mutant cDNA sequence as well as a BamHI and NdeI restriction site is used together with oligonucleotide TYROL 3 comprising the sequence surrounding the unique BamHI restriction site downstream of the ATG start codon of the cDNA coding for P-450TYR to amplify a modified N-terminal sequence of P-450TYR. The amplification product is cut with NdeI and BamHI restriction enzymes. To introduce a HindIII site immediately downstream of the stop codon of the P-450TYR gene, oligonucleotides TYROL 2 and TYROL 4 are used in a polymerase chain reaction to obtain a C-terminal fragment of the P-450TYR gene comprising a HindIII restriction site immediately downstream of the stop codon. The amplification product is cut with PstI and HindIII restriction enzymes. The complete expression plasmid is constructed by simultaneous ligation of the N-terminal NdeI/BamHI fragment, the BamHI/PstI fragment of the P-450TYR gene and the C-terminal PstI/HindIII fragment into NdeI/HindIII cleaved pSP19g10L vector DNA. The expression vector obtained is transformed into E. coli strain JM109. Transformed E. coli produce 300 nmol to 500 nmol cytochrome P-450TYR per liter cell culture upon growth at 28° C. in the presence of 1 mM isopropyl-β-D-thiogalactopyranoside and at 125 rpm. Expression levels as high as 900 nmol per liter, equivalent to 55 mg P-450TYR per liter, have been obtained. […]
# cytochrome P-450TYR = biological target: T2, cytochrome P-450TYR (Sorghum bicolor, UniProt Q43135); experiment: Reconstitution of cytochrome P-450TYR activity in DLPC micelles; assay type: biochemical
# T2 construct: from tissue; host or cells: microsomes of etiolated Sorghum bicolor seedlings, solubilised and purified by dye columns
# T2 sequence (Q43135 2-558): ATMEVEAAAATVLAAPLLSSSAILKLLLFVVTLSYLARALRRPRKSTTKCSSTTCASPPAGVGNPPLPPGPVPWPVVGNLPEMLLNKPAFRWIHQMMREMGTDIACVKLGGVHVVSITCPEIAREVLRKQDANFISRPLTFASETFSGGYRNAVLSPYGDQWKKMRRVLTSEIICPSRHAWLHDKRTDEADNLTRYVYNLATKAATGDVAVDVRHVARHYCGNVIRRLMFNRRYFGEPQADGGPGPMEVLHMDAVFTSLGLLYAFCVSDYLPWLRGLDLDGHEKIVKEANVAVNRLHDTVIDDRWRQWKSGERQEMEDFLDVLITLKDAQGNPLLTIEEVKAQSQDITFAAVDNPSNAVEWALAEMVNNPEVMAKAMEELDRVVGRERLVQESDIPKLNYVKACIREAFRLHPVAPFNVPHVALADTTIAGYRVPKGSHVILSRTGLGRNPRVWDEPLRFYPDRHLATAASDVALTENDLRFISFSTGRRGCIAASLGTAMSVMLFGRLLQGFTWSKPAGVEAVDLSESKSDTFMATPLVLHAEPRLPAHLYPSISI
# Text: Reconstitution of the enzyme activity of a microsomal P-450 enzyme is accomplished by insertion of the cytochrome P-450 enzyme and the corresponding NADPH-cytochrome P-450 oxidoreductase into appropriate lipid micelles made from different commercially available lipids. Isolation of NADPH-cytochrome P-450 oxidoreductase is done according to Halkier and Moller, Plant Physiol. 96:10-17, 1990. A mixture of lipids can be used but with cytochrome P-450TYR di-lauroyl-phosphatidyl choline (DLPC) provides the best enzymatic activity. One rate limiting factor of this rate limiting reaction is the number of correctly formed complexes of cytochrome P-450TYR and NADPH-cytochrome P-450 oxidoreductase. Excess amounts of the oxidoreductase and concentrated enzyme solutions ensure a sufficient number of active complexes.
# A reconstituted enzyme is obtained using the following components:
# Cytochrome P-450TYR : 100 μg/ml in 50 mM potassium phosphate buffer pH 7,9
# Oxidoreductase, purified from Sorghum bicolor: 100 μg/ml in 50 mM potassium phosphate buffer pH 7,9
# Lipid: 10 mg/ml di-lauroyl-phosphatidyl choline, sonicated in 50 mM potassium phosphate buffer pH 7,9
# ^14 C-tyrosine: commercially available from Amersham; [U-^14 C]-L-tyrosine 0.5 μCi
# 10 μl of the lipid suspension is mixed in a glass vial with 50 μl of the cytochrome P-450TYR (0-1.5 pmol) solution. 50 μl of the oxidoreductase (0-0.15 U) solution is added and then 10 μl tyrosine solution and 10 μl NADPH solution are added and the mixture is sonicated in a Branson 5200 sonication bath for one minute. The reaction mixture is subsequently incubated for 1 hour at 30° C. At the end of the incubation period the reaction is stopped by transferring the glass vials onto ice. Radioactively labelled intermediates formed are extracted into 50 μl ehtyl acetate, applied to a silica coated TLC plate and developed using an ethyl acetate/toluene (1:5 v/v) mixture as mobile phase. The resultant product, p-hydroxyphenylacetaldehyde oxime is visualized by autoradiography of the TLC plate. Alternatively, the intermediates are analyzed by reverse-phase HPLC coupled to a Berthold radioactiviy monitor. The HPLC separation was carried out using a nucleosil 100-10C18 column isocratically eluted with 1,5% 2-propanol in 25 mM Hepes pH 7,9 (Halkier et al, J. Biol. Chem. 264:19487-19494, 1989). Control samples may be made by omitting either cytochrome P-450 oxidoreductase or NADPH.
structure (smiles),measurement,setting,value
"N[C@@H](Cc1ccc(O)cc1)C(=O)O [tyrosine, L-tyrosine]",molar extinction coefficient E420-390,[1],75.8 cm⁻¹ mM⁻¹
same,turn-over number,cytochrome P-450TYR; in the absence of added salt,228 min⁻¹
same,turn-over number,cytochrome P-450TYR; in the presence of 15 mM NaCl,198 min⁻¹
